Where two headings read alike, the source gives them in different places.
Assays:
[1] = tested on: ATR-driven phosphorylation of Chk1 kinase at Serine 345 in HT-29 colorectal adenocarcinoma cells; assay: pCHK1 cellular assay (CHK1 p-Ser345 AlphaScreen SureFire); format: cell-based; details: 4-nitroquinoline N-oxide 12 uM, read-out: Cell IC50 (pCHK1 IC50 values)
In short: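 HT-29 cells seeded overnight, treated with 1:3 serially diluted compound for 90 minutes at 37° C., then 12 uM (final) 4-nitroquinoline N-oxide for 120 minutes. Lysates read for Chk1 p-Ser345 by AlphaScreen SureFire; IC50 from four-parameter logistic fit, normalized to DMSO (max) and 5 uM ATR inhibitor (min).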

ATR/ATRIP complex = ATR/ATRIP complex (Homo sapiens (Human), UniProt Q13535); assay: ATR/ATRIP enzymatic assay (Caliper-based); format: biochemical; details: FAM-labeled RAD17 peptide, ATP
In short: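 FLAG-TEV-ATR/His6-ATRIP co-expressed in HEK293 and anti-FLAG purified. Compound preincubated 30 min at 28 °C with enzyme (2x solution 4 nM), then FAM-RAD17 peptide (2x solution 10 uM, 2 μM ATP) added for 6 h at 28 °C; HEPES pH 8, 10 mM MnCl2. Caliper conversion read-out, IC50 from four-parameter fit.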

[2] = Homo sapiens, HT-29, HT-29 cells
[3] = estimated range, read-out: ATR/ATRIP Enzyme IC50 (estimated class)
[4] = read-out: ATR/ATRIP Enzyme IC50

Sequence of ATR/ATRIP complex (Q13535 whole entry): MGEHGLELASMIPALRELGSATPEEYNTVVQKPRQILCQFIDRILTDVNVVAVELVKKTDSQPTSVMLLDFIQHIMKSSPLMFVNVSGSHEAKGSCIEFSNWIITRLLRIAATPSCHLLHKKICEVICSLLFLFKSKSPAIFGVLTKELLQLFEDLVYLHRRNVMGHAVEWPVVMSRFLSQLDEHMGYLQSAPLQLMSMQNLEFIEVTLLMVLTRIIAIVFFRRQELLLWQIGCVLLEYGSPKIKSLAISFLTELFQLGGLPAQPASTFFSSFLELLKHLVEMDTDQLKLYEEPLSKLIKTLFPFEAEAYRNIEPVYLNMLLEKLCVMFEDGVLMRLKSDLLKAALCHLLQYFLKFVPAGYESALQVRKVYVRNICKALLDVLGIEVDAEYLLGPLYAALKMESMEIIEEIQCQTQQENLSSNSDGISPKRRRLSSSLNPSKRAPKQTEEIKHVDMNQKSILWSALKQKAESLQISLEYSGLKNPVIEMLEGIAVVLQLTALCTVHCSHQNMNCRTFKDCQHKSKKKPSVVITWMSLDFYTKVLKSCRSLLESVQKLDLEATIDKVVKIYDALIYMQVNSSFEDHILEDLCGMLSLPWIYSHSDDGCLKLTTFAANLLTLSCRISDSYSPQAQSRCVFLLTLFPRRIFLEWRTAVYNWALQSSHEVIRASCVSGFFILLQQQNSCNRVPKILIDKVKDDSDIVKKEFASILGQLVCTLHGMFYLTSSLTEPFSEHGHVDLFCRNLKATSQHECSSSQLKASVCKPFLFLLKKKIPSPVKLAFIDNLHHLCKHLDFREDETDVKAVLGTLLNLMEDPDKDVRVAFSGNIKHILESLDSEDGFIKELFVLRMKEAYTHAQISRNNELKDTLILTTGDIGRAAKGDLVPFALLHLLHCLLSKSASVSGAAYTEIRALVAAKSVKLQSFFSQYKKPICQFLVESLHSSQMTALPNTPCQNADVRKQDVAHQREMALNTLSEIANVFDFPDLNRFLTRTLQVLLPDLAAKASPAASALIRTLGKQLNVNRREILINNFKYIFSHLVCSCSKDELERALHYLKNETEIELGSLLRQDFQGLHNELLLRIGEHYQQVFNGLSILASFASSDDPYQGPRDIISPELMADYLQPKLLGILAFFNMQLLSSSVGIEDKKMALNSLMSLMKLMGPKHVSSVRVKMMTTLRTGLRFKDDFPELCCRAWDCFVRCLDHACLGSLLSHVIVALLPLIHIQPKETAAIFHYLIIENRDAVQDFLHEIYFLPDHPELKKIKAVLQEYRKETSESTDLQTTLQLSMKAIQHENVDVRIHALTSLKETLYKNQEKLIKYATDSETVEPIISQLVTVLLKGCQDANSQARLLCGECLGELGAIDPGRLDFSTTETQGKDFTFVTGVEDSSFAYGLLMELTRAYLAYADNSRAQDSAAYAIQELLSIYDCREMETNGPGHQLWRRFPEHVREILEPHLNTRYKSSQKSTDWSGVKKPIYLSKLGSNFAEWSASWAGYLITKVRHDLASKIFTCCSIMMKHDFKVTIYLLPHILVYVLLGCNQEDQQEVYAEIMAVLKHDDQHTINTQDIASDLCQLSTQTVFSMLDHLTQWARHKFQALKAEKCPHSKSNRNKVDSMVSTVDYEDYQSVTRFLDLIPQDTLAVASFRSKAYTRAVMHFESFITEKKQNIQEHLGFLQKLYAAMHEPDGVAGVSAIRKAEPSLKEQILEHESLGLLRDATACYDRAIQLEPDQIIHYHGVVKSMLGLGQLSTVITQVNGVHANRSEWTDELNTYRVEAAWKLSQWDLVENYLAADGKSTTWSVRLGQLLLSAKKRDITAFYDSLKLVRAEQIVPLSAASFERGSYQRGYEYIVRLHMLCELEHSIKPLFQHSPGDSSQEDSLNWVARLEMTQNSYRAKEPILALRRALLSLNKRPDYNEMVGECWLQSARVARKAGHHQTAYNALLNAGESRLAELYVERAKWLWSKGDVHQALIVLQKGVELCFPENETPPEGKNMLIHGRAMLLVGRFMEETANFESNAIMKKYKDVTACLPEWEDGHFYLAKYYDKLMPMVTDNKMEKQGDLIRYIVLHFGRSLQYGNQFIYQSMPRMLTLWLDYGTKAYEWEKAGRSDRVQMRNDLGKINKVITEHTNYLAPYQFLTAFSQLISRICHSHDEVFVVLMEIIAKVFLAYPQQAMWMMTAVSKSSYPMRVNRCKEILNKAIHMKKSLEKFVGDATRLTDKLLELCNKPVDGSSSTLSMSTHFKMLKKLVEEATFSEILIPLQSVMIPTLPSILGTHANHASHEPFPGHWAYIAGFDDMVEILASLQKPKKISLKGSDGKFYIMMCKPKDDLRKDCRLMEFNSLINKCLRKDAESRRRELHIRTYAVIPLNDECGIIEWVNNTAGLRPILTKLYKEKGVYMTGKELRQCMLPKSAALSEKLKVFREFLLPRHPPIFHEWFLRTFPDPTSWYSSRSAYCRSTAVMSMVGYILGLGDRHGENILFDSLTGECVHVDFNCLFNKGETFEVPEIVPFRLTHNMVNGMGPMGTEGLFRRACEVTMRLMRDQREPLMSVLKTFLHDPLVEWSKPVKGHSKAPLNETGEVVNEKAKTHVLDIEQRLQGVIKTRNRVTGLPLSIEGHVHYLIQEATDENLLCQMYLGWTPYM
Sequence of ATR/ATRIP complex (Q8WXE1 whole entry partner): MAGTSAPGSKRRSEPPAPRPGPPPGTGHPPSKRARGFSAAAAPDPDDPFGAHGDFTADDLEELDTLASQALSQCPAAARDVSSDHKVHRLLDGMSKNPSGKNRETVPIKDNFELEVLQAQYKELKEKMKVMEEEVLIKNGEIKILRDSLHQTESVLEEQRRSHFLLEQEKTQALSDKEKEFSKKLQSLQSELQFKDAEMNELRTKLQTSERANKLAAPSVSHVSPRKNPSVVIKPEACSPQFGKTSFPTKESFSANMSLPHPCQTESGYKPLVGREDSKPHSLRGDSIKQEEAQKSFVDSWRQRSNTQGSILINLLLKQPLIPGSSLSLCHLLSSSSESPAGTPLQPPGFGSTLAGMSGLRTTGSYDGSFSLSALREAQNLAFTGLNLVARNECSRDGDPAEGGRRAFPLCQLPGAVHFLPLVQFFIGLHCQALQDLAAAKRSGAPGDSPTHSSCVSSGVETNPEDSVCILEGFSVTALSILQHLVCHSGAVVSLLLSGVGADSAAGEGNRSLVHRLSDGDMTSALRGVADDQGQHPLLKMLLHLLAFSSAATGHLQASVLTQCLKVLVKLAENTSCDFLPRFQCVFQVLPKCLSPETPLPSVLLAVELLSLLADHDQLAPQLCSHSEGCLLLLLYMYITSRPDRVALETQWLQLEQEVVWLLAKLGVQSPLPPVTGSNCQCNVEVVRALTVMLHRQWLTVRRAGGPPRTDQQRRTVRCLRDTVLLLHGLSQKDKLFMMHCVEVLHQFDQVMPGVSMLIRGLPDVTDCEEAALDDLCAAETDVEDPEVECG

Compound | IC50 [1, 2] [nM] | IC50 (ATR/ATRIP complex; [3]) [nM] | IC50 (ATR/ATRIP complex; [4]) [nM] | IC50 ([1]; HT-29 cells) [nM]
C[C@@H]1Cc2ncnc(N3CCC34CN(S(C)(=O)=O)C4)c2CN1c1cc(Cl)nc2[nH]ccc12 [Example 37, (R)-6-(6-chloro-1H-pyrrolo[2,3-b]pyridin-4-yl)-7-methyl-4-(6-(methylsulfonyl)-1,6-diazaspiro[3.3]heptan-1-yl)-5,6,7,8-tetrahydropyrido[4,3-d] pyrimidine] | 56 | 1000 to 10000 | – | –
CS(=O)(=O)c1ccc(-c2ncnc3c2CN(c2ccnc4[nH]ccc24)CC3)cc1 [Example 1, 4-(4-(Methylsulfonyl)phenyl)-6-(1H-pyrrolo[2,3-b]pyridin-4-yl)-5,6,7,8-tetrahydropyrido[4,3-d]pyrimidine bis(trifluoroacetate)] | 1880 | 1000 to 10000 | – | –
C[C@@H]1Cc2ncnc(N3CCC(S(C)(=O)=O)CC3)c2CN1c1ccnc2[nH]ccc12 [Example 8, (R)-7-Methyl-4-(4-(methylsulfonyl)piperidin-1-yl)-6-(1H-pyrrolo[2,3-b]pyridin-4-yl)-5,6,7,8-tetrahydropyrido[4,3-d]pyrimidine bis(trifluoroacetate)] | 127 | – | 979 | –
CNC(=O)C1CN(c2ncnc3c2CN(c2cc(Cl)nc4[nH]ccc24)[C@H](C)C3)C1 [Example 34, 1-[(7R)-6-{6-chloro-1H-pyrrolo[2,3-b]pyridin-4-yl}-7-methyl-5H,6H,7H,8H-pyrido[4,3-d]pyrimidin-4-yl]-N-methylazetidine-3-carboxamide] | 87 | – | 429 | –
N-((1R,5S,8R)-3-((R)-7- methyl-6-(1H-pyrrolo- [2,3-b]pyridin-4-yl)- 5,6,7,8-tetrahydropyrido- [4,3-d]pyrimidin-4-yl)-3- azabicyclo[3.2.1]octan-8- yl)methanesulfonamide [Example 74] | – | – | 279 | 31
C[C@@H]1Cc2ncnc(N3CCC(S(C)(=O)=O)CC3)c2CN1c1cc(Cl)nc2[nH]ccc12 [Example 9, (R)-6-(6-Chloro-1H-pyrrolo[2,3-b]pyridin-4-yl)-7-methyl-4-(4-(methylsulfonyl)-piperidin-1-yl)-5,6,7,8-tetrahydropyrido[4,3-d]pyrimidine bis(trifluoroacetate)] | 25 | – | 442 | –
C[C@@H]1Cc2ncnc(N3CCC(O)CC3)c2CN1c1cc(Cl)nc2[nH]ccc12 [Example 12, (R)-1-(6-(6-Chloro-1H-pyrrolo[2,3-b]pyridin-4-yl)-7-methyl-5,6,7,8-tetrahydropyrido[4,3-d]pyrimidin-4-yl)piperidin-4-ol] | 28 | – | 518 | –
C[C@@H]1Cc2ncnc(N3CC(S(C)(=O)=O)C3)c2CN1c1cc(Cl)nc2[nH]ccc12 [Example 32, 1-[(7R)-6-{6-chloro-1H-pyrrolo[2,3-b]pyridin-4-yl}-7-methyl-5H,6H,7H,8H-pyrido[4,3-d]pyrimidin-4-yl]-3-methanesulfonylazetidine] | 21 | – | 223 | –
C[C@@H]1Cc2ncnc(C3CCN(S(C)(=O)=O)CC3)c2CN1c1ncnc2[nH]ccc12 [Example 23, 1-methanesulfonyl-4-[(7R)-7-methyl-6-{7H-pyrrolo[2,3-d]pyrimidin-4-yl}-5H,6H,7H,8H-pyrido[4,3-d]pyrimidin-4-yl]piperidine] | 611 | 1000 to 10000 | – | –
C[C@@H]1Cc2ncnc(N3CC(C(C)(C)O)C3)c2CN1c1cc(Cl)nc2[nH]ccc12 [Example 33, 2-{1-[(7R)-6-{6-chloro-1H-pyrrolo[2,3-b]pyridin-4-yl}-7-methyl-5H,6H,7H,8H-pyrido[4,3-d]pyrimidin-4-yl]azetidin-3-yl}propan-2-ol] | 15 | – | 183 | –
C[C@@H]1Cc2ncnc(N3CCCN(S(C)(=O)=O)CC3)c2CN1c1ccnc2[nH]ccc12 [Example 19, 1-methanesulfonyl-4-[(7R)-7-methyl-6-{1H-pyrrolo[2,3-b]pyridin-4-yl}-5H,6H,7H,8H-pyrido[4,3-d]pyrimidin-4-yl]-1,4-diazepane] | 162 | 1000 to 10000 | – | –

Next, values leading:

IC50 [1, 2] [nM] | IC50 (ATR/ATRIP complex; [3]) [nM] | IC50 (ATR/ATRIP complex; [4]) [nM] | IC50 ([1]; HT-29 cells) [nM] | Compound
654 | – | 3600 | – | C[C@@H]1Cc2ncnc(C3CCN(C(=O)C(C)(C)O)CC3)c2CN1c1ccnc2[nH]ccc12 [Example 49, (R)-2-Hydroxy-2-methyl-1-(4-(7-methyl-6-(1H-pyrrolo[2,3-b]pyridin-4-yl)-5,6,7,8-tetrahydropyrido[4,3-d]pyrimidin-4-yl)piperidin-1-yl)propan-1-one]
– | – | 1470 | 394 | C[C@@H]1Cc2ncnc([C@H]3CCN(S(C)(=O)=O)C3)c2CN1c1ccnc2[nH]ccc12 [Example 57b, (R)-7-methyl-4-((S)-1-(methylsulfonyl)pyrrolidin-3-yl)-6-(1H-pyrrolo[2,3b]-pyridin-4-yl)-5,6,7,8-tetrahydropyrido[4,3-d]pyrimidine]
48 | – | 283 | – | C[C@@H]1Cc2ncnc(N3CC4CCC(C3)C4NS(C)(=O)=O)c2CN1c1ccnc2[nH]ccc12 (stereo partly drawn) [Example 69, N-(3-((R)-7-methyl-6-(1H-pyrrolo[2,3-b]-pyridin-4-yl)-5,6,7,8-tetrahydropyrido[4,3-d]-pyrimidin-4-yl)-3-aza-bicyclo[3.2.1]octan-8-yl)-methanesulfonamide]
218 | – | 966 | – | C[C@@H]1Cc2ncnc(N3CCC(S(C)(=N)=O)CC3)c2CN1c1cc(Cl)nc2[nH]ccc12 (stereo partly drawn) [Example 58, (1-((R)-6-(6-chloro-1H-pyrrolo[2,3-b]pyridin-4-yl)-7-methyl-5,6,7,8-tetrahydropyrido[4,3-d]pyrimidin-4-yl)piperidin-4-yl)(imino)(methyl)-λ^6-sulfanone]
79 | – | 722 | – | C[C@@H]1Cc2ncnc(N3CC(NS(C)(=O)=O)C3)c2CN1c1ccnc2[nH]ccc12 [Example 84, (R)-N-(1-(7-methyl-6-(1H-pyrrolo[2,3-b]-pyridin-4-yl)-5,6,7,8-tetrahydropyrido[4,3-d]pyrimidin-4-yl)-azetidin-3-yl)-methanesulfonamide]
555 | – | 2650 | – | C[C@@H]1Cc2ncnc(C3CCN(S(C)(=O)=O)CC3)c2CN1c1nccc2[nH]ccc12 [Example 59, (R)-7-methyl-4-(1-(methylsulfonyl)piperidin-4-yl)-6-(1H-pyrrolo[3,2-c]pyridin-4-yl)-5,6,7,8-tetrahydropyrido[4,3-d]pyrimidine]
14 | – | 103 | – | C[C@@H]1Cc2ncnc(N3CC(C#N)C3)c2CN1c1cc(Cl)nc2[nH]ccc12 [Example 79, (R)-1-(6-(6-chloro-1H-pyrrolo[2,3-b]pyridin-4-yl)-7-methyl-5,6,7,8-tetrahydropyrido[4,3-d]-pyrimidin-4-yl)azetidine-3-carbonitrile]
10000 | – | 30000 | – | CS(=O)(=O)N1CCC(c2ncnc3c2CN(c2ccnc4[nH]ccc24)[C@@H](CF)C3)CC1 [Example 52a, (R)-7-(fluoromethyl)-4-(1-(methylsulfonyl)piperidin-4-yl)-6-(1H-pyrrolo[2,3-b]pyridin-4-yl)-5,6,7,8-tetrahydropyrido[4,3-d]pyrimidine]
132 | – | 1090 | – | C[C@@H]1Cc2ncnc(C3CCN(S(=O)(=O)C4CC4)CC3)c2CN1c1ccnc2[nH]ccc12 [Example 80, (R)-4-(1-(cyclopropyl-sulfonyl)piperidin-4-yl)-7-methyl-6-(1H-pyrrolo[2,3-b]pyridin-4-yl)-5,6,7,8-tetrahydro-pyrido[4,3-d]pyrimidine]
